Data reported in ChEMBL document CHEMBL6078622, “Enhancing outer membrane permeability of tetracycline antibiotics in P. aeruginosa using TOB-CIP conjugates” (RSC Med Chem, 2024).
Activity calls are given as the source filed them. The calls are words filed in the database; no cut-off is given here.

Legend:
Pseudomonas aeruginosa [1] = experiment: Synergistic antibacterial activity against Pseudomonas aeruginosa PAO1 assessed as fold change in tigecycline MIC by checkerboard analysis relative to Tigecycline alone; assay type: functional
Pseudomonas aeruginosa [2] = experiment: Synergistic antibacterial activity against Pseudomonas aeruginosa PAO1 assessed as fold change in eravacycline MIC by checkerboard analysis relative to eravacycline alone; assay type: functional
Pseudomonas aeruginosa [3] = experiment: Antibacterial activity against Pseudomonas aeruginosa PA100036 assessed as inhibition of visible bacterial growth by CLSI based broth-microdilution method; assay type: functional
Pseudomonas aeruginosa [4] = experiment: Antibacterial activity against Pseudomonas aeruginosa PA200 assessed as inhibition of visible bacterial growth by CLSI based broth-microdilution method; assay type: functional
Pseudomonas aeruginosa [5] = experiment: Synergistic antibacterial activity against Pseudomonas aeruginosa PA262 in presence of tigecycline by checkerboard assay; assay type: functional
Pseudomonas aeruginosa [6] = experiment: Synergistic antibacterial activity against Pseudomonas aeruginosa PA264 in presence of tigecycline by checkerboard assay; assay type: functional
Pseudomonas aeruginosa [7] = experiment: Synergistic antibacterial activity against Pseudomonas aeruginosa PA100036 in presence of minocycline by checkerboard assay; assay type: functional
Pseudomonas aeruginosa [8] = experiment: Synergistic antibacterial activity against Pseudomonas aeruginosa PA100036 in presence of doxycycline by checkerboard assay; assay type: functional
Pseudomonas aeruginosa [9] = experiment: Synergistic antibacterial activity against Pseudomonas aeruginosa PA114228 in presence of minocycline by checkerboard assay; assay type: functional
Pseudomonas aeruginosa [10] = experiment: Synergistic antibacterial activity against Pseudomonas aeruginosa PA114228 in presence of doxycycline by checkerboard assay; assay type: functional
Pseudomonas aeruginosa [11] = experiment: Synergistic antibacterial activity against Pseudomonas aeruginosa PA114228 in presence of eravacycline by checkerboard assay; assay type: functional
Pseudomonas aeruginosa [12] = experiment: Synergistic antibacterial activity against Pseudomonas aeruginosa PA095 in presence of doxycycline by checkerboard assay; assay type: functional
Pseudomonas aeruginosa [13] = experiment: Synergistic antibacterial activity against Pseudomonas aeruginosa PA095 in presence of eravacycline by checkerboard assay; assay type: functional
Pseudomonas aeruginosa [14] = experiment: Synergistic antibacterial activity against Pseudomonas aeruginosa PA200 in presence of minocycline by checkerboard assay; assay type: functional
Pseudomonas aeruginosa [15] = experiment: Synergistic antibacterial activity against Pseudomonas aeruginosa PA200 in presence of doxycycline by checkerboard assay; assay type: functional
Pseudomonas aeruginosa [16] = experiment: Antibacterial activity against Pseudomonas aeruginosa PA262 assessed as minocycline MIC by CLSI based broth-microdilution method; assay type: functional
Pseudomonas aeruginosa [17] = experiment: Antibacterial activity against Pseudomonas aeruginosa PA262 assessed as doxycycline MIC by CLSI based broth-microdilution method; assay type: functional
Pseudomonas aeruginosa [18] = experiment: Antibacterial activity against Pseudomonas aeruginosa PA262 assessed as tigecycline MIC by CLSI based broth-microdilution method; assay type: functional
Pseudomonas aeruginosa [19] = experiment: Antibacterial activity against Pseudomonas aeruginosa PA262 assessed as eravacycline MIC by CLSI based broth-microdilution method; assay type: functional
Pseudomonas aeruginosa [20] = experiment: Antibacterial activity against Pseudomonas aeruginosa PA264 assessed as tigecycline MIC by CLSI based broth-microdilution method; assay type: functional
Pseudomonas aeruginosa [21] = experiment: Antibacterial activity against Pseudomonas aeruginosa PA100036 assessed as minocycline MIC by CLSI based broth-microdilution method; assay type: functional
Pseudomonas aeruginosa [22] = experiment: Antibacterial activity against Pseudomonas aeruginosa PA100036 assessed as doxycycline MIC by CLSI based broth-microdilution method; assay type: functional
Pseudomonas aeruginosa [23] = experiment: Antibacterial activity against Pseudomonas aeruginosa PA100036 assessed as tigecycline MIC by CLSI based broth-microdilution method; assay type: functional
Pseudomonas aeruginosa [24] = experiment: Antibacterial activity against Pseudomonas aeruginosa PA101243 assessed as eravacycline MIC by CLSI based broth-microdilution method; assay type: functional
Pseudomonas aeruginosa [25] = experiment: Antibacterial activity against Pseudomonas aeruginosa PA095 assessed as doxycycline MIC by CLSI based broth-microdilution method; assay type: functional
Pseudomonas aeruginosa [26] = experiment: Antibacterial activity against Pseudomonas aeruginosa PA200 assessed as minocycline MIC by CLSI based broth-microdilution method; assay type: functional
Pseudomonas aeruginosa [27] = experiment: Synergistic antibacterial activity against Pseudomonas aeruginosa PA262 assessed as fractional inhibitory concentration index in presence of doxycycline by checkerboard assay; assay type: functional
Pseudomonas aeruginosa [28] = experiment: Synergistic antibacterial activity against Pseudomonas aeruginosa PA262 assessed as fractional inhibitory concentration index in presence of tigecycline by checkerboard assay; assay type: functional
Pseudomonas aeruginosa [29] = experiment: Synergistic antibacterial activity against Pseudomonas aeruginosa PA262 assessed as fractional inhibitory concentration index in presence of eravacycline by checkerboard assay; assay type: functional
Pseudomonas aeruginosa [30] = experiment: Synergistic antibacterial activity against Pseudomonas aeruginosa PA264 assessed as fractional inhibitory concentration index in presence of tigecycline by checkerboard assay; assay type: functional
Pseudomonas aeruginosa [31] = experiment: Synergistic antibacterial activity against Pseudomonas aeruginosa PA264 assessed as fractional inhibitory concentration index in presence of eravacycline by checkerboard assay; assay type: functional
Pseudomonas aeruginosa [32] = experiment: Synergistic antibacterial activity against Pseudomonas aeruginosa PA100036 assessed as fractional inhibitory concentration index in presence of tigecycline by checkerboard assay; assay type: functional
Pseudomonas aeruginosa [33] = experiment: Synergistic antibacterial activity against Pseudomonas aeruginosa PA114228 assessed as fractional inhibitory concentration index in presence of eravacycline by checkerboard assay; assay type: functional
Pseudomonas aeruginosa [34] = experiment: Synergistic antibacterial activity against Pseudomonas aeruginosa PA101243 assessed as fractional inhibitory concentration index in presence of doxycycline by checkerboard assay; assay type: functional
Pseudomonas aeruginosa [35] = experiment: Synergistic antibacterial activity against Pseudomonas aeruginosa PA095 assessed as fractional inhibitory concentration index in presence of doxycycline by checkerboard assay; assay type: functional
Pseudomonas aeruginosa [36] = experiment: Synergistic antibacterial activity against Pseudomonas aeruginosa PA200 assessed as fractional inhibitory concentration index in presence of doxycycline by checkerboard assay; assay type: functional
Pseudomonas aeruginosa [37] = experiment: Synergistic antibacterial activity against Pseudomonas aeruginosa PA200 assessed as fractional inhibitory concentration index in presence of eravacycline by checkerboard assay; assay type: functional
Pseudomonas aeruginosa [38] = experiment: Synergistic antibacterial activity against Pseudomonas aeruginosa PA114228 assessed as fold change in eravacycline MIC by CLSI based broth-microdilution method relative to eravacycline alone; assay type: functional
Pseudomonas aeruginosa [39] = experiment: Synergistic antibacterial activity against Pseudomonas aeruginosa PA101243 assessed as fold change in doxycycline MIC by CLSI based broth-microdilution method relative to doxycycline alone; assay type: functional
Pseudomonas aeruginosa [40] = experiment: Synergistic antibacterial activity against Pseudomonas aeruginosa PA101243 assessed as fold change in tigecycline MIC by CLSI based broth-microdilution method relative to tigecycline alone; assay type: functional
Pseudomonas aeruginosa [41] = experiment: Synergistic antibacterial activity against Pseudomonas aeruginosa PA095 assessed as fold change in minocycline MIC by CLSI based broth-microdilution method relative to minocycline alone; assay type: functional
Pseudomonas aeruginosa [42] = experiment: Synergistic antibacterial activity against Pseudomonas aeruginosa PA200 assessed as fold change in doxycycline MIC by CLSI based broth-microdilution method relative to doxycycline alone; assay type: functional
Pseudomonas aeruginosa [43] = experiment: Synergistic antibacterial activity against Pseudomonas aeruginosa PA200 assessed as fold change in eravacycline MIC by CLSI based broth-microdilution method relative to eravacycline alone; assay type: functional
Pseudomonas aeruginosa [44] = experiment: Antibacterial activity against Pseudomonas aeruginosa PAO1 assessed as inhibition of bacterial growth by measuring fold change in MIC in presence of 10 % fetal bovine serum by CLSI protocol based assay; assay type: functional
Pseudomonas aeruginosa [45] = experiment: Antibacterial activity against Pseudomonas aeruginosa PAO1 assessed as inhibition of bacterial growth by measuring fold change in MIC in presence of 25 % fetal bovine serum by CLSI protocol based assay; assay type: functional
Pseudomonas aeruginosa [46] = experiment: Antibacterial activity against Pseudomonas aeruginosa PA259 assessed as reduction in bacterial load by time kill assay; assay type: functional, organism-based
HEK293 = experiment: Cytotoxicity against HEK293 cells assessed as reduction in cell viability at 7 uM; assay type: toxicity, cell-based; settings: human, hek293, 7 µM

Cl.Cl.Cl.Cl.Cl.Cl.NC[C@H]1O[C@H](O[C@H]2[C@H](OCCCCCCCCCCCCNC(=O)c3cn(C4CC4)c4cc(N5CCNCC5)c(F)cc4c3=O)[C@@H](O[C@H]3O[C@H](CO)[C@@H](O)[C@H](N)[C@H]3O)[C@H](N)C[C@@H]2N)[C@H](N)C[C@@H]1O
fold change (FC) (Pseudomonas aeruginosa [1]): 64
fold change (FC) (Pseudomonas aeruginosa [2]): 64
MIC (Pseudomonas aeruginosa [3]): > 128 µg/mL
MIC (Pseudomonas aeruginosa [4]): 32 µg/mL
MIC (Pseudomonas aeruginosa [5]): 8 µg/mL
MIC (Pseudomonas aeruginosa [6]): 8 µg/mL
MIC (Pseudomonas aeruginosa [7]): 8 µg/mL
MIC (Pseudomonas aeruginosa [8]): 8 µg/mL
MIC (Pseudomonas aeruginosa [9]): 8 µg/mL
MIC (Pseudomonas aeruginosa [10]): 8 µg/mL
MIC (Pseudomonas aeruginosa [11]): 8 µg/mL
MIC (Pseudomonas aeruginosa [12]): 2 µg/mL
MIC (Pseudomonas aeruginosa [13]): 2 µg/mL
MIC (Pseudomonas aeruginosa [14]): 8 µg/mL
MIC (Pseudomonas aeruginosa [15]): 8 µg/mL
MIC (Pseudomonas aeruginosa [16]): 2 µg/mL
MIC (Pseudomonas aeruginosa [17]): 8 µg/mL
MIC (Pseudomonas aeruginosa [18]): 2 µg/mL
MIC (Pseudomonas aeruginosa [19]): 1 µg/mL
MIC (Pseudomonas aeruginosa [20]): 0.5 µg/mL
MIC (Pseudomonas aeruginosa [21]): 0.25 µg/mL
MIC (Pseudomonas aeruginosa [22]): 1 µg/mL
MIC (Pseudomonas aeruginosa [23]): 0.5 µg/mL
MIC (Pseudomonas aeruginosa [24]): 2 µg/mL
MIC (Pseudomonas aeruginosa [25]): 4 µg/mL
MIC (Pseudomonas aeruginosa [26]): 1 µg/mL
fractional inhibitory concentration index (FICI) (Pseudomonas aeruginosa [27]): 0.002
fractional inhibitory concentration index (FICI) (Pseudomonas aeruginosa [28]): 0.008
fractional inhibitory concentration index (FICI) (Pseudomonas aeruginosa [29]): 0.062
fractional inhibitory concentration index (FICI) (Pseudomonas aeruginosa [30]): 0.004
fractional inhibitory concentration index (FICI) (Pseudomonas aeruginosa [31]): 0.008
fractional inhibitory concentration index (FICI) (Pseudomonas aeruginosa [32]): 0.002
fractional inhibitory concentration index (FICI) (Pseudomonas aeruginosa [33]): 0.5
fractional inhibitory concentration index (FICI) (Pseudomonas aeruginosa [34]): 0.25
fractional inhibitory concentration index (FICI) (Pseudomonas aeruginosa [35]): 0.25
fractional inhibitory concentration index (FICI) (Pseudomonas aeruginosa [36]): 0.257
fractional inhibitory concentration index (FICI) (Pseudomonas aeruginosa [37]): 0.156
fold change (FC) (Pseudomonas aeruginosa [38]): 256
fold change (FC) (Pseudomonas aeruginosa [39]): 2
fold change (FC) (Pseudomonas aeruginosa [40]): 4
fold change (FC) (Pseudomonas aeruginosa [41]): 8
fold change (FC) (Pseudomonas aeruginosa [42]): 64
fold change (FC) (Pseudomonas aeruginosa [43]): 128
fold change (FC) (Pseudomonas aeruginosa [44]): >512
fold change (FC) (Pseudomonas aeruginosa [45]): 128
AC30 (Pseudomonas aeruginosa [46]): Active
Activity (HEK293): Non-toxic
